According to patent US20040229241A1, “Cloned mammalian polyamine oxidase” (priority 2001, published 2004):

Key:
[1] = test system: SSAT; experiment: SSAT activity of NCI A549 cellular extracts; type: cell-based, human; conditions: NCI A549, 10 μM, 24 h; untreated 5 ± 0.1
From the text: (§1) Total cellular RNA was extracted from the lung cancer cell lines using Trizol reagent (Invitrogen) according to the manufacturer's protocol. For Northern blotting, total RNA (20 lg) was separated on a denaturing 1.5% agarose gel containing 6% formaldehyde and transferred to Zetaprobe membrane (Bio-Rad). Random primer- labeled PAOh1 cDNA was used as probe to estimate PAOh1/SMO expression. Blots were stripped and reprobed with an 18S ribosomal cDNA to provide a loading control. Analysis of polyamine content, SSAT and PAOh1/SMO activity. Intracellular polyamine concentrations were determined using the precolumn dansylation labeling, reverse-phase high-pressure liquid chromatography method as described by Kabra et al. using 1,7-diaminoheptane as an internal standard. Polyamine concentrations are reported as nanomoles per milligram protein for each sample, where lysate protein content was measured by the method of Bradford. SSAT activity of cellular extracts was measured as previously described. […] The PAOh1/SMO assays were performed in the presence of 1.0 mM pargyline and 0.1 mM semicarbizide as inhibitors of monoamine oxidase (MAO) and diamine oxidase (DAO), respectively.

[2] = test system: PAOh1/SMO; experiment: PAOh1/SMO activity in lysates of NCI A549 cells after analogue treatment; type: cell-based, human
Description: (§2) Cell Culture and Analysis of Growth Inhibition of Human Lung Cancer Cell Lines The non-small-cell cancer lines NCI A549 (adenocarcinoma), NCI H157 (squamous), NCI H727 (carcinoid), NCI H125 (adenocarcinoma) and U1752 (squamous), and the small-cell lung carcinoma lines NCI H82 and NCI H889 were cultured as we have previously described. Cells were treated for the times and with the concentrations of specific agents as indicated in the Results. For cell growth analysis in the presence of the PAOh1/SMO inhibitor MDL 72,527, the MTS dye reduction assay CellTiter 96 system from Promega was used according to the supplier's protocol. In these experiments, NCI A549 cells were seeded at 5×10^3 cells/well in a 96-well microtiter plate and treated for 96 h with 10 μM of the indicated analogue in the presence or absence of 250 μM MDL 72,527.
as §1

[3] = test system: PAO message; experiment: Northern blot of PAO mRNA in NCI H157 cells after analogue treatment; type: cell-based, human; conditions: 10 μM, 24 h
Description: RNA Purification and Northern Blot Assay. Total cellular RNA from the NCI H157 cell line was extracted using Trizol total RNA reagent according to the protocol from the manufacturer. Total RNA (20 μg) was separated on a denaturing 1.5% agarose gel containing 6% formaldehyde, transferred to Zetaprobe membrane (Bio-Rad), and hybridized with a random primer-labeled pPAOh1 cDNA as the probe. Blots were washed and reprobed with an 18S ribosomal cDNA probe as a loading control.

[4] = test system: NCI A549 cells; experiment: Intracellular polyamine and analogue content of NCI A549 cells (HPLC); type: cell-based, human; conditions: NCI A549, 10 μM, 24 h
From the text: as §1

[5] = test system: PAO; experiment: PAO activity in homogenates of NCI H157 cells after analogue treatment; type: cell-based, human; conditions: 10 μM, 24 h
Description: Determination of PAO Enzyme Activity. The cultured H157 cells with or without treatment of 10 μM N^1, N″-bis(ethyl)norspermine (BENSpm) were homogenized with a Dounce tissue homogenizer in ice-cold 0.083 M sodium borate buffer (pH 9.0). The PAO activity in homogenates was assayed by the method of Suzuki et al. […] The enzyme activity was stopped by the addition of 2.0 ml of 0.1 M NaOH solution. The fluorescence intensity was measured with excitation at 323 nm and emission at 426 nm. […] Protein content of the cellular homogenate was determined using the Bio-Rad protein assay kit (Bio-Rad). […] For determination of PAO activity in the product of the unlabeled TnT reaction, 10 μl of TnT reaction were used in the place of the homogenate. The PAO activity in the TnT reactions was represented by the fluorescent compound formed within the 1-h incubation. […] The concentrations chosen for each inhibitor were based on studies published previously (12).

[6] = target: T1, purified recombinant human PAOh1/SMO (Homo sapiens, UniProt Q9NWM0); experiment: Oxidase activity of purified recombinant PAOh1/SMO, luminol chemiluminescence; type: biochemical; conditions: 250 μM of compound
T1 construct: A 1702 bp fragment of the PAOh1cDNA was produced by PCR; His tag (pET15b) (N); made in house; host or cells: Escherichia coli BL21(DE3)
Description: Expression and Purification of PAOh1/SMO. The pET15b/PAOh1/SMO plasmid was used to transform the BL21(DE3) strain of Escherichia coli (Novagen) and transformed cells were selected on LB agar with 50 μg/ml ampicillin. The expression of PAOh1/SMO protein was induced in LB medium by the addition of 1 mM IPTG for 3 h at 37 ° C. Cell lysates were prepared under denaturing conditions with 8M urea and PAOh1/SMO protein was purified from the lysate by Ni-NTA resin according to the manufacturer's protocol (Qiagen, Valencia, Calif.). The resulting denatured protein was renatured in buffers containing decreasing concentrations of urea (5M urea, 4 h; 2.5M urea, 4 h; 1M urea, 12 h; and 0M urea, 12 h) and 50 mM Tris-HCl, pH 7.5, 250 mM NaCl, 0.1 mM EDTA, 1 mM DTT, and 0.2 μM flavin adenine dinucleotide (FAD).
Determination of PAO enzyme activity. PAO activity of the purified PAOh1/SMO was assayed using a modi.cation of the chemiluminesence analysis reported by Fernandez et al. and Rogers, et al.. Briefly, luminol-dependent chemiluminescence was determined using a Monolight 3010 luminometer with two reagent injectors. Luminol was prepared as a 100 mM stock solution in DMSO and diluted to 100 μM with H2O, immediately prior to use. Purified PAOh1/SMO was assayed in a 100 mM glycine buffer, pH 8.0, 5 ηmol luminol, 20 μg horseradish peroxidase, and the polyamine substrate as indicated. All reagents with the exception of the polyamine substrate were combined and incubated for 2 min at 37 ° C., then the tube was transferred to the luminometer, substrate was added, and the resulting chemiluminescence was integrated over 20 s. The integral values are calibrated against standards containing known concentrations of H2O2 and the activities are expressed as pmols H2O2/mg protein/min. Where indicated, inhibitors were added at the specified concentrations prior to the addition of substrate. Km and Vmax values for the purified enzyme with the indicated substrate were estimated using Lineweaver-Burk transformation of the Michaelis-Menten kinetic equation.

[7] = test system: PAOh1/SMO; experiment: PAOh1/SMO activity and mRNA in small-cell lung cancer lines NCI H82 and NCI H889 after BENSpm; type: cell-based, human; conditions: two small-cell lung cancer lines, 10 μM, 24 h
Description: as §2, with “In these experiments, NCI A549 cells were seeded at 5×10^3 cells/well in a 96-well microtiter plate and treated for 96 h with 10 μM of the indicated analogue in the presence or absence of 250 μM MDL 72,527.” left out
Total cellular RNA was extracted from the lung cancer cell lines using Trizol reagent (Invitrogen) according to the manufacturer's protocol. […] Intracellular polyamine concentrations were determined using the precolumn dansylation labeling, reverse-phase high-pressure liquid chromatography method as described by Kabra et al. using 1,7-diaminoheptane as an internal standard. Polyamine concentrations are reported as nanomoles per milligram protein for each sample, where lysate protein content was measured by the method of Bradford. SSAT activity of cellular extracts was measured as previously described. […]

[8] = test system: NCI A549 cells; experiment: MTS cell growth analysis of NCI A549 cells with or without MDL 72,527; type: cell-based, human; conditions: NCI A549, 96 h, 10 μM analogue with 250 μM MDL 72,527
Description: as §2

T1 sequence (Q9NWM0 whole entry, the tested form may be a part): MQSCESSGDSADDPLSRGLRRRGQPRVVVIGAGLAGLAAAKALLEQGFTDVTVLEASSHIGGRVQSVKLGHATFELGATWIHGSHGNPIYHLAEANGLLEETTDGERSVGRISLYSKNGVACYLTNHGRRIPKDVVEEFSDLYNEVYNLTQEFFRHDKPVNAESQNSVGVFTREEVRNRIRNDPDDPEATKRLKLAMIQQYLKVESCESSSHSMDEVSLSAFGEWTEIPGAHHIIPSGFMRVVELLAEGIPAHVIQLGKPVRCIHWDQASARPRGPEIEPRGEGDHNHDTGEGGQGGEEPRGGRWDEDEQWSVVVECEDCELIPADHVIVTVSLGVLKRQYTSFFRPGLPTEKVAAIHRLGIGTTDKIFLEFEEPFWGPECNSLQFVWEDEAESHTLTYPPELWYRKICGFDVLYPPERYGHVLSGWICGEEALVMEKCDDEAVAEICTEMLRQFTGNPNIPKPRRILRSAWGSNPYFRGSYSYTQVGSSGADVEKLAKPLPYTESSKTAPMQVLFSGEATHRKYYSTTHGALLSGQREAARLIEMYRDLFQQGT

CCNCCCNCCCNCCCNCC [BENSpm, N^1,N^11-bis(ethyl)norspermine]
SSAT activity [1]: 5590 ± 517.7 pmol N^1-acetylspermidine/mg p | fold increase of PAOh1/SMO activity ([2]; NCI A549, 10 μM, 12 h): approximately threefold | fold induction of PAOh1/SMO activity ([2]; NCI A549, 10 μM, 24 h, 250 μM spermine as substrate): about fivefold | PAOh1/SMO activity ([2]; NCI A549, 10 μM, 24 h, untreated 6,390 ± 2,070): 16,100 ± 780 pmol H2O2/mg/h | induction of PAOh1/SMO activity ([2]; NCI A549, 24 h exposure to 10 μM of each analogue): significant induction | concentration of maximal induction of PAOh1/SMO ([2]; NCI A549, increasing concentrations, 24 h): 5 µM | increase in PAO message [3]: ~5 fold | Polyamine: Putrescine ([4]; untreated 2.1 ± 0.7): <0.05 nmol/mg protein | Polyamine: Spermine ([4]; untreated 9.9 ± 1.2): 1.2 ± 0.3 nmol/mg protein | Polyamine: Spermidine ([4]; untreated 26.9 ± 1.2): 1.2 ± 0.8 nmol/mg protein | increase in PAO activity [5]: > 3 fold | ability to serve as substrate (oxidation by purified PAOh1/SMO) [6]: none of the analogues examined were found to be oxidized | increase in PAOh1/SMO activity [7]: no observed increase | increase in PAOh1/SMO mRNA [7]: no observed increase | sensitivity of cell growth to analogue in the presence of the PAOh1/SMO inhibitor [8]: clear decrease in sensitivity
